Measurements published in ChEMBL document CHEMBL1201862, “PubChem BioAssay data set” (2004).
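Values below derive from 48-hour exposures of cells grown in 96-well plates, with endpoints linearly interpolated between the two concentrations bracketing the appropriate inhibition level. Abbreviation: GI50, concentration required for 50% inhibition of growth.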 Activity calls are given as the source filed them. Cut-off read from the data, not from the text of the source: active = GI50 up to about 1.1 µM and inactive = higher. Square brackets hold non-standard residues; d marks the D form. Peptide text beside a SMILES is read from it. * marks the point of attachment. Boc = CC(C)(C)OC(=O)*; Lac = C[CH](O)C(=O)O; OBn = c1ccc(CO*)cc1

How the values were obtained:
Experiment in all cases: DTP human tumour cell line panel, 48 h
[1] = tested on: SK-MEL-2
[2] = tested on: HCT-15
[3] = tested on: LOX IMVI
[4] = tested on: UO-31
[5] = tested on: CCRF-CEM
[6] = tested on: OVCAR-3
[7] = tested on: OVCAR-8
[8] = tested on: HOP-92
[9] = tested on: NCI-H23
[10] = tested on: NCI-H460
[11] = tested on: HCC 2998
[12] = tested on: SN12C
[13] = tested on: SW-620
[14] = tested on: TK-10
[15] = tested on: U-251
[16] = tested on: HCT-116
[17] = tested on: UACC-62
[18] = tested on: NCI-H226
[19] = tested on: SK-MEL-5
[20] = tested on: EKVX

With `O=C1Nc2ccc(Cl)cc2/C1=C\c1c(Cl)nc2sccn12` the GI50 [1] was 0.314 µM (active), the GI50 [2] was 2.67 µM and the GI50 [3] was 7.48 µM (inactive). The GI50 [4] was > 100 µM (inactive), the GI50 [5] was 10.6 µM (inactive) and the GI50 [6] was 3.32 µM (inactive). The GI50 [7] was 50.8 µM (inactive), the GI50 [8] was > 100 µM (inactive) and the GI50 [9] was 59 µM (inactive). For the same compound, the GI50 [10] was 1.96 µM (inactive), the GI50 [11] was 2.14 µM (inactive) and the GI50 [12] was > 100 µM (inactive). For the same compound, the GI50 [13] was 14.8 µM (inactive), the GI50 [14] was 8.47 µM (inactive) and the GI50 [15] was 2.93 µM (inactive). The GI50 [16] was 4.23 µM (inactive).
For `C[C@H]1S[C@@H](c2ccc(Cl)cc2Cl)N(NC(=O)c2ccncc2)C1=O`, the GI50 [1] was 27.3 µM (inactive), the GI50 [2] was 47.9 µM and the GI50 [4] was 37 µM (inactive). The GI50 [5] was 11.3 µM (inactive), the GI50 [6] was 35.6 µM (inactive) and the GI50 [7] was > 100 µM (inactive). For the same compound, the GI50 [8] was 60.5 µM (inactive), the GI50 [9] was 50.4 µM (inactive) and the GI50 [17] was 29.6 µM (inactive). The GI50 [10] was 58.2 µM (inactive), the GI50 [18] was 41.6 µM (inactive) and the GI50 [12] was 71.3 µM (inactive). For the same compound, the GI50 [19] was 44.8 µM (inactive), the GI50 [15] was 64 µM (inactive) and the GI50 [16] was 34.5 µM (inactive).
`Nc1ccccc1C(=O)N/N=C1\C(=O)Nc2ccccc21` was tested, and the GI50 [1] was > 100 µM (inactive), the GI50 [2] was > 100 µM and the GI50 [4] was > 100 µM (inactive). The GI50 [5] was > 100 µM (inactive), the GI50 [6] was > 100 µM (inactive) and the GI50 [7] was > 100 µM (inactive). The GI50 [9] was 56.2 µM (inactive), the GI50 [20] was > 100 µM (inactive) and the GI50 [17] was > 100 µM (inactive). For the same compound, the GI50 [10] was > 100 µM (inactive), the GI50 [11] was > 100 µM (inactive) and the GI50 [18] was > 100 µM (inactive). For the same compound, the GI50 [12] was > 100 µM (inactive), the GI50 [14] was 32.5 µM (inactive) and the GI50 [19] was > 100 µM (inactive). For the same compound, the GI50 [15] was 40.2 µM (inactive) and the GI50 [16] was > 100 µM (inactive).
With `O=C(OCCOC(=O)c1ccc2c(c1)C1(SCCS1)c1ccccc1-2)c1ccc2c(c1)C1(SCCS1)c1ccccc1-2` the GI50 [1] was > 100 µM (inactive), the GI50 [2] was > 100 µM and the GI50 [3] was > 100 µM (inactive). For the same compound, the GI50 [4] was > 100 µM (inactive), the GI50 [5] was > 100 µM (inactive) and the GI50 [6] was > 100 µM (inactive). For the same compound, the GI50 [7] was > 100 µM (inactive), the GI50 [9] was > 100 µM (inactive) and the GI50 [20] was > 100 µM (inactive). The GI50 [17] was > 100 µM (inactive), the GI50 [10] was > 100 µM (inactive) and the GI50 [11] was > 100 µM (inactive). For the same compound, the GI50 [18] was > 100 µM (inactive), the GI50 [12] was > 100 µM (inactive) and the GI50 [13] was > 100 µM (inactive). The GI50 [19] was > 100 µM (inactive), the GI50 [15] was > 100 µM (inactive) and the GI50 [16] was > 100 µM (inactive).
With `CC(OC(=O)C(Cc1ccccc1)NC(=O)C(Cc1ccccc1)NC(=O)OC(C)(C)C)C(=O)OCc1ccccc1` (stereo not drawn) (Boc-Phe-Phe-[Lac]-OBn; configuration not given here) the GI50 [1] was > 100 µM (inactive), the GI50 [2] was > 100 µM and the GI50 [4] was > 100 µM (inactive). For the same compound, the GI50 [5] was > 100 µM (inactive), the GI50 [6] was > 100 µM (inactive) and the GI50 [7] was > 100 µM (inactive). For the same compound, the GI50 [8] was > 100 µM (inactive), the GI50 [9] was > 100 µM (inactive) and the GI50 [17] was > 10 µM (inactive). The GI50 [10] was > 100 µM (inactive), the GI50 [11] was > 100 µM (inactive) and the GI50 [18] was > 100 µM (inactive). The GI50 [12] was > 100 µM (inactive), the GI50 [19] was > 100 µM (inactive) and the GI50 [15] was > 100 µM (inactive). For the same compound, the GI50 [16] was > 100 µM (inactive).
In the case of `Cc1n[nH]c(CC#N)n1`, the GI50 [1] is reported as > 100 µM (inactive), the GI50 [2] is reported as > 100 µM and the GI50 [3] is reported as > 100 µM (inactive). The GI50 [4] was > 100 µM (inactive), the GI50 [5] was > 100 µM (inactive) and the GI50 [6] was > 100 µM (inactive). The GI50 [7] was > 100 µM (inactive), the GI50 [8] was > 100 µM (inactive) and the GI50 [9] was > 100 µM (inactive). The GI50 [20] was > 100 µM (inactive), the GI50 [17] was > 100 µM (inactive) and the GI50 [11] was > 100 µM (inactive). The GI50 [12] was > 100 µM (inactive), the GI50 [13] was > 100 µM (inactive) and the GI50 [14] was > 100 µM (inactive). The GI50 [19] was > 100 µM (inactive), the GI50 [15] was > 100 µM (inactive) and the GI50 [16] was > 100 µM (inactive).
`Cn1c(=O)c(C#N)c(O)c2cc3ccccc3nc21` was tested, and the GI50 [1] was > 100 µM (inactive), the GI50 [2] was > 100 µM and the GI50 [3] was > 100 µM (inactive). The GI50 [4] was > 100 µM (inactive), the GI50 [5] was > 100 µM (inactive) and the GI50 [7] was > 100 µM (inactive). For the same compound, the GI50 [8] was > 100 µM (inactive), the GI50 [9] was > 100 µM (inactive) and the GI50 [20] was > 100 µM (inactive). For the same compound, the GI50 [10] was > 100 µM (inactive), the GI50 [11] was > 100 µM (inactive) and the GI50 [18] was > 100 µM (inactive). The GI50 [12] was > 100 µM (inactive), the GI50 [13] was > 100 µM (inactive) and the GI50 [14] was > 100 µM (inactive). For the same compound, the GI50 [19] was > 100 µM (inactive), the GI50 [15] was > 100 µM (inactive) and the GI50 [16] was > 100 µM (inactive).
`OC1CCOc2ccccc21` (configuration not stated) was tested, and the GI50 [1] was > 100 µM (inactive), the GI50 [2] was > 100 µM and the GI50 [3] was > 100 µM (inactive). For the same compound, the GI50 [4] was > 100 µM (inactive), the GI50 [5] was > 100 µM (inactive) and the GI50 [6] was > 100 µM (inactive). For the same compound, the GI50 [7] was > 100 µM (inactive), the GI50 [9] was > 100 µM (inactive) and the GI50 [20] was > 100 µM (inactive). For the same compound, the GI50 [17] was > 100 µM (inactive), the GI50 [10] was > 100 µM (inactive) and the GI50 [11] was > 100 µM (inactive). For the same compound, the GI50 [18] was > 100 µM (inactive), the GI50 [12] was > 100 µM (inactive) and the GI50 [13] was > 100 µM (inactive). For the same compound, the GI50 [14] was > 100 µM (inactive), the GI50 [19] was > 100 µM (inactive) and the GI50 [15] was > 100 µM (inactive). For the same compound, the GI50 [16] was > 100 µM (inactive).
In the case of `O=C1CCC(NC(=O)Cc2ccc(O)cc2)C(=O)N1` (configuration not stated), the GI50 [2] is reported as > 2500 µM, the GI50 [3] is reported as > 2500 µM (inactive) and the GI50 [4] is reported as > 2500 µM (inactive). For the same compound, the GI50 [6] was > 2500 µM (inactive), the GI50 [7] was > 2500 µM (inactive) and the GI50 [8] was > 2500 µM (inactive). For the same compound, the GI50 [9] was > 2500 µM (inactive), the GI50 [20] was > 2500 µM (inactive) and the GI50 [17] was > 2500 µM (inactive). For the same compound, the GI50 [10] was > 2500 µM (inactive), the GI50 [18] was > 2500 µM (inactive) and the GI50 [12] was > 2500 µM (inactive). For the same compound, the GI50 [13] was > 2500 µM (inactive), the GI50 [14] was > 2500 µM (inactive) and the GI50 [19] was > 2500 µM (inactive). The GI50 [15] was > 2500 µM (inactive) and the GI50 [16] was > 2500 µM (inactive).
In the case of `COc1ccc(C(=O)NNC(=O)c2nsc3ccccc23)cc1`, the GI50 [1] is reported as > 100 µM (inactive), the GI50 [2] is reported as 41.7 µM and the GI50 [3] is reported as 58.2 µM (inactive). The GI50 [4] was > 100 µM (inactive), the GI50 [5] was 24.7 µM (inactive) and the GI50 [6] was 30.8 µM (inactive). The GI50 [7] was 60.1 µM (inactive), the GI50 [8] was 40.1 µM (inactive) and the GI50 [9] was > 100 µM (inactive). For the same compound, the GI50 [20] was 27.2 µM (inactive), the GI50 [17] was > 100 µM (inactive) and the GI50 [11] was > 100 µM (inactive). For the same compound, the GI50 [12] was > 100 µM (inactive), the GI50 [13] was > 100 µM (inactive) and the GI50 [14] was > 100 µM (inactive). For the same compound, the GI50 [19] was > 100 µM (inactive), the GI50 [15] was 41.1 µM (inactive) and the GI50 [16] was 83.6 µM (inactive).
With `CCC(=O)NC(Nc1cccc(F)c1)(C(F)(F)F)C(F)(F)F` the GI50 [1] was > 100 µM (inactive), the GI50 [2] was > 100 µM and the GI50 [3] was > 100 µM (inactive). The GI50 [4] was 70.1 µM (inactive), the GI50 [5] was 60 µM (inactive) and the GI50 [6] was > 100 µM (inactive). For the same compound, the GI50 [7] was > 100 µM (inactive), the GI50 [8] was > 100 µM (inactive) and the GI50 [9] was > 100 µM (inactive). The GI50 [20] was 67.3 µM (inactive), the GI50 [17] was > 100 µM (inactive) and the GI50 [10] was > 100 µM (inactive). For the same compound, the GI50 [11] was > 100 µM (inactive), the GI50 [12] was 37.7 µM (inactive) and the GI50 [13] was > 100 µM (inactive). For the same compound, the GI50 [14] was > 100 µM (inactive), the GI50 [19] was 78.7 µM (inactive) and the GI50 [15] was 90.6 µM (inactive). The GI50 [16] was > 100 µM (inactive).
With `COP(=O)(OC)C(N)Cc1c[nH]c2ccccc12` (configuration not stated) the GI50 [1] was > 100 µM (inactive), the GI50 [2] was > 100 µM and the GI50 [3] was > 100 µM (inactive). The GI50 [4] was > 100 µM (inactive), the GI50 [6] was > 100 µM (inactive) and the GI50 [7] was > 100 µM (inactive). The GI50 [9] was > 100 µM (inactive), the GI50 [10] was > 100 µM (inactive) and the GI50 [11] was > 100 µM (inactive). For the same compound, the GI50 [18] was > 100 µM (inactive), the GI50 [12] was > 100 µM (inactive) and the GI50 [13] was > 100 µM (inactive). The GI50 [14] was > 100 µM (inactive), the GI50 [19] was > 100 µM (inactive) and the GI50 [15] was > 100 µM (inactive). For the same compound, the GI50 [16] was > 100 µM (inactive).
